# System: pediatric AML patients
# Test: AML02 multicenter clinical trial, LDAC vs HDAC induction arms: MRD1, EFS and OS overall and by ACS10 score
# Assay type: in vivo, human
# Design: 3-year EFS / 4-year OS / 5-year OS / 4-year EFS / 5-year EFS / 3-year OS: unit not given here
# Conditions: for Event-free Survival 5 years / Overall Survival 5 years: AML02 cohort
# Procedure: One hundred and sixty-six pediatric AML patients treated under the multicenter AML02 clinical trial protocol were included in the study. Details of study design and clinical outcome have been described elsewhere. Briefly, patients with de novo AML were randomized to receive either high (3 g/m^2, given every 12 h on days 1, 3, and 5; this condition is designated “HDAC”) or low dose (100 mg/m^2 given every 12 h on days 1-10; this condition is designated “LDAC”) cytarabine along with daunorubicin (50 mg/m^2 on days 2, 4 and 6) and etoposide (100 mg/m^2 on days 2-6) as a first course of chemotherapy with subsequent treatment tailored to response and risk classification. For initial risk assignment, patients with cytogenetic translocations comprisingt [8;21] (e.g., translocation between chromosome 8 and 21), inv (16), ort [9;11] were classified as low-risk. Patients with features such as deletion of chromosome 7 (−7), presence of FLT3-ITD mutation (FLT-ITD), cytogenetic translocation comprisingt [6;9], megakaryoblastic leukemia (AMKL), treatment-related AML, or AML arising from MDS were classified as high-risk AML. Patients lacking any of the low or high-risk group features were provisionally classified as standard risk AML. Patient risk classifications were updated on the basis of minimal residual disease evaluations. Clinical endpoints used in this evaluation were defined as follows: i) Minimal residual disease after induction 1 (“MRD1”) (patients were defined as MRD positive if they had ≥1 leukemic cell per 1000 mononuclear bone marrow cells (≥0.1%); ii) Complete remission defined as trilineage hematopoietic recovery with less than 5% blasts in the marrow; iii) Event-free survival (“EFS”) defined as the time from study enrollment to induction failure, relapse, secondary malignancy, death, or study withdrawal for any reason, with event-free patients censored on the date of last follow-up; and iv) Overall survival (“OS”) defined as the time from study enrollment to death, with living patients censored on the date of last follow-up. St. Jude Institutional Review Board approved the study, and informed consent was obtained from parents/guardians and consents/assents from the individuals.
# The association of MRD1, EFS, and OS was evaluated with ACS10 scores in the AML02 discovery cohort and the AAML0531 validation cohort. The Kaplan-Meier method was used to estimate the EFS and OS probabilities for well-defined groups of patients. Cox regression models were used to associate ACS10 with EFS and OS and used logistic regression models to associate ACS10 with MRD1. The Wilcoxon rank-sum test and Kruskal-Wallis test were used to compare medians of numeric variables across groups. Chi-square tests and Fisher's exact test were used to evaluate the association among pairs of categorical variables. All p-values are two-sided. All statistical analyses were performed using R software (www.r-project.org).
# The multicenter AML02 clinical trial randomly assigned subjects to receive low dose ara-C (LDAC: 100 mg/m^2; n=91 patients) or high dose ara-C(HDAC: 3 g/m^2; n=75 patients) in combination with daunorubicin and etoposide as the first course of chemotherapy as described above in patient cohort section. Thus, the association of SNPs with outcome within each arm separately was also explored (Table 5).
# Given patients in AML02 cohort were randomized to receive low or augmented high dose of ara-C, this unique opportunity was leveraged to evaluate performance of ACS10 score within the different ara-C dose treatment arms (of note LDAC and HDAC arms had similar distribution of patients across, disease characteristics, risk group, cytogenetics, race, gender etc. Table 3). […]
# [1] = ACS10 score 0, risk-adjusted Cox model
# [2] = ACS10 score 1, risk-adjusted Cox model
# [3] = ACS10 score 2, risk-adjusted Cox model
# [4] = ACS10 score 3, risk-adjusted Cox model
# [5] = ACS10 score 4, risk-adjusted Cox model
# [6] = ACS10 score 5, risk-adjusted Cox model
# [7] = ACS10 score −1, risk-adjusted Cox model
# [8] = ACS10 score −2, risk-adjusted Cox model
# [9] = ACS10 score −3, risk-adjusted Cox model
# [10] = ACS10 score −5, risk-adjusted Cox model
# [11] = low ACS10 score (≤0) patients, AML02
# [12] = number of patients per arm, after induction 1, AML02 cohort
# [13] = patients with ACS10 score of +5, risk-adjusted Cox model
# [14] = patients with ACS10 score of −5, risk-adjusted Cox model
smiles,measurement,setting,value
"Nc1ccn([C@@H]2O[C@H](CO)[C@@H](O)[C@@H]2O)c(=O)n1 [LDAC, cytarabine]",3-year EFS,[1],0.5527
same,3-year OS,[1],0.7030
same,4-year EFS,[1],0.5391
same,4-year OS,[1],0.6960
same,5-year EFS,[1],0.5316
same,5-year OS,[1],0.6960
same,3-year EFS,[2],0.6541
same,3-year OS,[2],0.7604
same,4-year EFS,[2],0.6423
same,4-year OS,[2],0.7544
same,5-year EFS,[2],0.6357
same,5-year OS,[2],0.7544
same,3-year EFS,[3],0.7393
same,3-year OS,[3],0.8089
same,4-year EFS,[3],0.7296
same,4-year OS,[3],0.8039
same,5-year EFS,[3],0.7242
same,5-year OS,[3],0.8039
same,3-year EFS,[4],0.8073
same,3-year OS,[4],0.8489
same,4-year EFS,[4],0.7997
same,4-year OS,[4],0.8448
same,5-year EFS,[4],0.7955
same,5-year OS,[4],0.8448
same,3-year EFS,[5],0.8596
same,3-year OS,[5],0.8814
same,4-year EFS,[5],0.8539
same,4-year OS,[5],0.8781
same,5-year EFS,[5],0.8507
same,5-year OS,[5],0.8781
same,3-year EFS,[6],0.8988
same,3-year OS,[6],0.9074
same,4-year EFS,[6],0.8946
same,4-year OS,[6],0.9048
same,5-year EFS,[6],0.8922
same,5-year OS,[6],0.9048
same,3-year EFS,[7],0.4399
same,3-year OS,[7],0.6369
same,4-year EFS,[7],0.4255
same,4-year OS,[7],0.6289
same,5-year EFS,[7],0.4176
same,5-year OS,[7],0.6289
same,3-year EFS,[8],0.3251
same,3-year OS,[8],0.5632
same,4-year EFS,[8],0.3112
same,4-year OS,[8],0.5546
same,5-year EFS,[8],0.3037
same,5-year OS,[8],0.5546
same,3-year EFS,[9],0.2202
same,3-year OS,[9],0.4846
same,4-year EFS,[9],0.2083
same,4-year OS,[9],0.4756
same,5-year EFS,[9],0.2020
same,5-year OS,[9],0.4756
same,3-year EFS,[10],0.0743
same,3-year OS,[10],0.3280
same,4-year EFS,[10],0.0683
same,4-year OS,[10],0.3197
same,5-year EFS,[10],0.0652
same,5-year OS,[10],0.3197
same,Event-free Survival 5 years,High ACS10 score group,0.712 ± 0.063
same,Overall Survival 5 years,High ACS10 score group,0.829 ± 0.052
same,Event-free Survival 5 years,Low ACS10 score group,0.421 ± 0.08
same,Overall Survival 5 years,Low ACS10 score group,0.579 ± 0.08
same,5 year EFS,[11],42%
same,five-year OS,[11],57%
same,MRDIND1 Negative (<0.1%),[12],49^+
same,MRDIND1 Positive (>=0.1%),[12],38^+
same,"3-year EFS, model estimate",[13],89.9%
same,"3-year OS, model estimate",[13],90.7%
same,"3-year EFS, model estimate",[14],7.4%
same,"3-year OS, model estimate",[14],32.8%
same,Event-free Survival 5 years,"probability, whole arm",0.591 ± 0.0518
same,Overall Survival 5 years,"probability, whole arm",0.724 ± 0.047
same,"EFS HR, low-ACS10 vs high-ACS10 score","within arm, AML02",2.81
same,"OS HR, low-ACS10 vs high-ACS10 score","within arm, AML02",2.98
same,EFS HR for each one-point increase in ACS10,"within arm, risk-adjusted Cox model, AML02",0.70

# Source: US20240344145A1, “PHARMACOGENOMICS SCORE TO MAKE DECISIONS ON THERAPY AUGMENTATION IN AML” (University of Florida Research Foundation, Incorporated, priority 2021, published 2024)
